Results: US8124111B2, “Immunomodulation by altering sphingosine 1-phosphate lyase (SPL) activity” (Children's Hospital & Research Center at Oakland, priority 2005, dated 2012)
Blank lines part the entries; values can stand above or below the compound they belong to.

Columns and labels:
SPL [1] = biological target: T1, SPL (Homo sapiens, UniProt O95470); details: cited from earlier work
T1 sequence (O95470 1-568): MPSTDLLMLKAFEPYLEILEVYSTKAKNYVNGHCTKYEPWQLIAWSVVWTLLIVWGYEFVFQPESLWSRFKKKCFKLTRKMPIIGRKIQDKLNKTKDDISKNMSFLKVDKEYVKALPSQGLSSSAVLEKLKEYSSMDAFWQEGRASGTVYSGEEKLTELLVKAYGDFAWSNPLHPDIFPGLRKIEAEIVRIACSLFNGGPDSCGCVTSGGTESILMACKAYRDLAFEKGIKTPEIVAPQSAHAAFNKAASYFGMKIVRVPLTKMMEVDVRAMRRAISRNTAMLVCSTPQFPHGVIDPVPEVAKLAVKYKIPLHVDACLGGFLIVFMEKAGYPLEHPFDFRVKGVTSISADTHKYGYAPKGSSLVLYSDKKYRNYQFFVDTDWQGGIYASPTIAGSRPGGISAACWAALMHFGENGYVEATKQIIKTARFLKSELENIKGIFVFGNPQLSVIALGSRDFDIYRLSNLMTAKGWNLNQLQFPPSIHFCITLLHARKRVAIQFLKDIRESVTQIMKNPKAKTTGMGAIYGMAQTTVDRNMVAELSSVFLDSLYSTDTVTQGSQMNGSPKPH

SPL [2] = biological target: T1, SPL; assay: Inhibition of SPL activity in vitro (whole cell extracts of HEK293 cells with human SPL adenoviral construct); type: biochemical; design: expressed in transfected cells; host or cells: HEK293 infected with adenoviral vector
Protocol: Various concentrations of FTY720 or its phosphorylated derivative (FTY720P) were incubated for 30 minutes on ice with whole cell extracts containing high SPL activity by virtue of a human SPL adenoviral expression construct. SPL activity was determined. (A) FTY720; (B) FTY720-P.
SPL enzyme assay: Tissues were homogenized by sonication in 9 volumes of ice-cold homogenization buffer (5 mM MOPS pH 7.5, 1 mM DTT, 1 mM EDTA, 0.25 M sucrose, and 5 micrograms/ml each chymostatin, leupeptin, pepstatin A and antipain). SPL assays were conducted using 50 micrograms protein per assay and radioactive [4,5 ^3H]DHS1P substrate, as described previously (Reiss et al., (2004) J Biol Chem 279, 1281-1290). For in vitro FTY720 and FTY720-P experiments, drug was incubated with whole cell extracts prepared from HEK293 cells infected with an adenoviral vector expressing human SPL. These extracts contained approximately 200 picomoles/mg protein/minute SPL activity. Drug was incubated with extracts for 30 minutes, followed by addition of extracts to reaction buffer and substrate to initiate the reaction.
Although treatment with FTY720 was associated with low (nanomolar) circulating drug levels, it was possible that local concentrations within cells and subcellular compartments may have been considerably higher, since FTY720 has been reported to be actively transported into cells by the actions of drug transporters that recognize long chain bases (Honig et al., (2003) J Clin Invest 111, 627-637).

[3] = tested on: human SPL luciferase reporter construct; assay: SPL gene expression, human SPL luciferase reporter in HEK293 cells; type: cell-based; details: 0.3 μM or 3.0 μM, 24 hours
Protocol: (A) SPL gene expression. HEK293 cells were co-transfected with a human SPL luciferase reporter construct and the sea pansy luciferase reporter as a control for transfection efficiency. Twenty-four hours after transfection, cells were treated with 0.3 μM FTY720, 3.0 μM FTY720 or vehicle and incubated for another 24 hours at 37° C. Luciferase activity was then determined as a measure of expression, as described in Experimental Methods. Values shown are luciferase activity normalized to sea pansy luciferase; (B) SPL protein expression. Thymic extracts from control mice (time 0) and mice treated with FTY720 for 24 hours were evaluated for SPL protein expression by immunoblotting. Actin was used as a loading control.
SPL expression: To evaluate the effect of FTY720 and FTY720-P on SPL gene expression, HEK293 cells were treated for 30 minutes with 3 μM of either drug, followed by transfection with pSPL-BamHI, a human SPL-luciferase reporter construct. After 48 hours, reporter expression was determined by luciferase activity as described (Oskouian et al., (2005) J Biol Chem 280, 18403-18410)). Western blotting of mouse tissue extracts was performed using a 1:2000 dilution of polyclonal sera raised against the murine SPL C-terminal peptide: (NH2)—V-T-Q-G-N-Q-M-N-G-S—P—K—P—R—(COOH). [SEQ ID NO:11] […]

SPL [4] = biological target: T1, SPL; assay: FTY720-P metabolism: stability in the presence of SPL, recovery quantified by HPLC; type: biochemical; design: expressed in transfected cells; host or cells: HEK293 infected with adenoviral vector; details: for stability in the presence of SPL (amount recovered by HPLC): incubated 0-24 hours with extracts of HEK293 cells overexpressing human SPL, standard SPL reaction conditions
Protocol: (A) Twenty nanomoles of FTY720-P were incubated with SPL enzyme for 0-24 hours under standard SPL reaction conditions in the absence of dihydrosphingosine 1-phosphate substrate. At the indicated times the reaction was stopped, and FTY720-P was recovered and quantified by HPLC. (B) Twenty nanomoles of S1P were incubated with extracts from cells overexpressing SPL for 0-24 hours, or alternatively, with extracts from cells containing pcDNA3.0 vector control which had no appreciable SPL activity (PC) for 2 hours. S1P was recovered and quantified by HPLC.
FTY720-P metabolism: Whole cell extracts of HEK293 cells stably overexpressing human SPL were prepared as previously described (Reiss et al., (2004) J Biol Chem 279, 1281-1290). These extracts contained approximately 700 picomoles/mg protein/minute of SPL activity. Twenty nanomoles FTY720-P were suspended in SPL reaction buffer (Van Veldhoven et al., (1991) J Biol Chem 266, 12502-12507), and 25 microliters of whole cell extract were added to initiate the reaction. At various time points, reaction was stopped by addition of a 2 ml mixture of chloroform and methanol (2:1 v/v), 1 ml of 1M KCl, 0.1 ml concentrated HCl. Sample was mixed by vortexing and centrifuged at 1200 rpm for 5 min. […] After derivatization with OPA, the sample was injected onto the HPLC for quantification. The HPLC analysis was conducted using a Beckman (Torrance, Calif., USA) system Gold 125 solvent module with a Spectra-Physics SP8410 fluorescence detector and a C18 (2) Luna 3 μm, 75×4.6 mm column from Phenomenex (CA). […] Recovery of S1P was determined by HPLC quantitation, as described below for S1P measurements in mouse tissues.
Confirmation of FTY720-P by LCMS: Samples corresponding to FTY720-P peak identified on HPLC were evaluated by LCMS to confirm FTY720-P by mass analysis. Twenty microliters of sample were injected into the LCMS and mass spectrum scans from 300 to 500 m/z and specific ions m/Z 388 and 410 were quantified for FTY720-P. A reverse phase C18 column from Phenomenex (2.1 mm×15 cm) was used. […]

[5] = tested on: C3H murine splenocytes and thymocytes
Protocol: Cellular Immune Functions—Mitogen Induced Lymphoproliferation: Spleen and thymus tissues were harvested from wild type C3H mice, and cell suspensions were prepared as described previously (Mishell et al., (1980) in Selected Methods in Cellular Immunology (Mishell, B., and Shiigi, S., eds), pp. 3-27, WH Freeman and Company, San Francisco). Cells were dispersed in sterile medium in 96 well microtiter plates (Falcon) at a concentration of 1×10^6 cells/ml for spleen and 5×10^6 cells/ml for thymus. […] Cell proliferation was determined after 48 and 72 hours using the Cell Titer 96 Non-Radioactive Cell Proliferation Assay from Promega (Mannheim, Germany), according to the manufacturer's instructions.

SMILES: CCCCCCCCCCCCCCCC(=O)N[C@@H](CO)[C@H](O)C1=C(CCCCCCCCCCCCC)C1 [C16-cyclopropenylceramide]
altering SPL activity (SPL [1]): capable of altering SPL activity

dose dependence of SPL inhibition in vitro (SPL [2]): not dose-dependent
only concentration that was inhibitory to SPL activity in vitro (SPL [2]; 30 minutes incubation with extracts): 30 µM
stability in the presence of SPL (amount recovered by HPLC) (SPL [4]): remained stable for up to 24 hours
substrate for SPL (SPL [4]; standard conditions): did not serve as a substrate for SPL
SMILES: CCCCCCCCc1ccc(CC[C@](N)(CO)COP(=O)(O)O)cc1 [FTY720-P]
SPL gene expression (luciferase activity normalized to sea pansy luciferase) [3]: not affected

SMILES: CCCCCCCCCCCCCC1=C([C@@H](O)[C@H](CO)NC(=O)CCCCCCC)C1 [GT11, C8-cyclopropenylceramide]
non-specific cytotoxic effects (light microscopy) [5]: negligible
LPS-stimulated lymphoproliferation ([5]; two different dosages, 24 hours preincubation, 1 or 10 μg/ml LPS, read after 48 and 72 hours): reduced
altering SPL activity (SPL [1]): capable of altering SPL activity

stability in the presence of SPL (amount recovered by HPLC) (SPL [4]): diminished
SMILES: CCCCCCCCCCCCC/C=C/[C@@H](O)[C@@H](N)COP(=O)(O)O [S1P, Sphingosine-1-phosphate]

SMILES: Cc1ncc(CO)c(C)c1O [deoxypyridoxine]
altering SPL activity (SPL [1]): capable of altering SPL activity
